How the values were obtained:
Type in all cases: cell-based
IL-1β = assay: Inhibition of IL-1β secretion in LPS stimulated peripheral blood mononuclear cells (ELISA); conditions: PBMC; LPS stimulated human peripheral blood mononuclear cells; compounds added 30 minutes before LPS; incubated 18 hours; read-out: The median inhibition concentration (IC50, nM) of IL-1β
Experimental: (§1) To study the effect of the compound of the present invention in vitro the inhibition of the IL-1β and TNF-α secretion was measured using the following procedure:
(§2) Cytokine production was measured in the media from lipopolysaccharide (LPS) stimulated peripheral blood mononuclear cells. The mononuclear cells were isolated from human peripheral blood by Lymphoprep® (Nycomed, Norway) fractionation and suspended in RPMI 1640 (growth medium) with foetal calv serum (FCS, 2%), at a concentration of 5 x 10^5 cells/ml. The cells were incubated in 24-well tissue culture plates in 1 ml aliquots. Test compounds were dissolved in dimethylsulfoxide (DMSO, 10 mM) and were diluted with the medium. Compounds were added to the cells for 30 minutes, then LPS ([…] final concentration) was added. The plates were incubated for 18 hours, and the concentration of IL-1β and TNF-α in the medium was determined by enzyme-linked immunosorbent assays. The median inhibitory concentrations (IC50) of the compounds were calculated.

[1] = tested on: Human polymorphonuclear (PMN) granulocytes; assay: Inhibition of PMN superoxide secretion (superoxide dismutase inhibitable reduction of ferricytochrome C); conditions: human PMN granulocytes primed with TNF-α (3 ng/ml), stimulated with fMLP (10^-7 M); read-out: The median inhibition concentration (IC50, nM) of PMN-superoxide
Experimental: The compounds of the present invention also show similar activities in the ability to inhibit PMN (polymorphonuclear) superoxide secretion which is also indicative of potentially useful anti-inflammatory drugs. The compounds were tested using the following procedure: Human polymorphonuclear (PMN) granulocytes were isolated from human blood by dextran sedimentation, Lymphoprep® fractionation and hypotonic lysis of contaminating erythrocytes. Superoxide anion generation was measured as the superoxide dismutase inhibitable reduction of ferricytochrome C (Madhu, S.B. et al, Inflammation, 16, 241, (1992)). The cells were suspended in Hanks' balanced salt solution, and incubated for 10 minutes at 37°C with test compounds. The cells were primed by the addition of TNF-α (3 ng/ml final concentration) for 10 minutes, and then ferricytochrome C, (final concentration 750µg/ml), bovine serum albumin (BSA, final concentration 1 mg/ml) and formyl-methionyl-leucyl-phenylalanine (fMLP, final concentration 10^-7 M) were added for 3 minutes. The cells were chilled on ice, and were spun down. The optical densities in the cell-free supernatant was measured in a spectrophotometer. The median inhibitory concentration (IC50) of the compounds was calculated.

TNF-α = assay: Inhibition of TNF-α secretion in LPS stimulated peripheral blood mononuclear cells (ELISA); conditions: PBMC; LPS stimulated human peripheral blood mononuclear cells; compounds added 30 minutes before LPS; incubated 18 hours; read-out: The median inhibition concentration (IC50, nM) of TNF-α
Experimental: as §1, §2

Row | SMILES | IC50 (IL-1β) | IC50 [1] | IC50 (TNF-α)
1 | Cc1ccccc1C(=O)c1ccc(Nc2ccccc2NC(=O)Oc2ccccc2)cc1Cl [Compound 105, Phenyl N-[2-[3-chloro-4-(2-methylbenzoyl)-phenylamino]phenyl]carbamate] | 50 nM | 100 nM | 10 nM
2 | CC(=O)OCOC(=O)Nc1ccccc1Nc1ccc(C(=O)c2ccccc2C)c(Cl)c1 [Compound 109, 1-Acetoxymethyl N-[2-[3-chloro-4-(2-methylbenzoyl)-phenylamino]phenyl]carbamate] | 32 nM | 40 nM | 6.3 nM
3 | Cc1ccccc1C(=O)c1ccc(Nc2ccccc2N)cc1Cl [ref. a), 4-(2-Aminophenylamino)-2-chloro-2'-methylbenzophenone] | 13 nM | 5 nM | 7.1 nM
4 | CCOC(=O)Nc1ccccc1Nc1ccc(C(=O)c2ccccc2C)c(Cl)c1 [ref. b), Ethyl N-[2-[3-chloro-4-(2-methylbenzoyl)-phenylamino]phenyl]carbamate] | 32 nM | 5 nM | 5 nM
